Assay: Particle size of mometasone furoate before milling, after roller milling and after spray drying
Assay type: physicochemical
Conditions: before roller milling
Experimental: Spray Drying Conditions: Inlet temperature=110° C.; Outlet temperature=54° C.; Aspirator=100%; Pump rate=20%; Q flow=50%; Nozzle cap=1.5 mm.
Roller Milling Conditions: Mometasone Furoate—initial median size—19.7 μm. Samples are milled in 250 mL jars for 3 hours with 0.5 mm YTZ media. Particle size diameter (PSD), after 3 hours milling, is measured in water. After milling, the suspension is extracted (needle 22G) from jars and mixed according the table and procedure shown. Procedure for Preparation of the Spray Drying Suspensions: The amounts of HPMC, MCC and H2O used is based on the extracted quantity of the suspension (Table II). HPMC is added as a solution prepared in H2O. HPMC solution is added to the extracted suspension and mixed for 15 minutes. MCC (Grade PH-F20JP, 20 μm) is added and mixed for 15 minutes. Particle size diameter (PSD) is measured after spray drying by dispersing the spray-dried powder in a liquid such as isopropyl palmitate or silicone oil, which are non-solvents for the components and will not alter particle size or cause disintegration of the composite particle. Materials: Mometasone Furoate (Hovione, East Windsor, N.J.); Citric acid, anhydrous (Fisher, Hampton, N.H.); Benzalkonium chloride (Fluka, St. Louis, Mo.); Microcrystalline cellulose (AsahKasei, Glenview, Ill.); Hydroxypropylmethyl cellulose (Colorcon, Harleysville, Pa.). […]

C[C@@H]1C[C@H]2[C@@H]3CCC4=CC(=O)C=C[C@]4(C)[C@@]3(Cl)[C@@H](O)C[C@]2(C)[C@@]1(OC(=O)c1ccco1)C(=O)CCl [Mometasone Furoate, (11β,16α)-9,21-dichloro-11-hydroxy-16-methyl-3,20-dioxopregna-1,4-dien-17-yl 2-furoate]
initial median size: 19.7 μm
